Experimental data taken from patent publication US5668152A, “Protein kinase C inhibitors” (priority 1995, dated 1997).
Where two headings read alike, the source gives them in different places.

What was measured:
[1] = target: protein kinase C gamma (Homo sapiens, UniProt P05129); assay: PKC Enzyme assay, gamma isozyme; type: biochemical
Procedure: (§1) PKC enzymes=alpha, beta I, beta II, gamma, delta, epsilon, eta and zeta.
(§2) Assay components in a total volume of 250 μL are the following:
(§3) Vesicles consisting of 120 μg/mL phosphatidylserine (Avanti Polar Lipids) and sufficient diacylglycerol (Avanti Polar Lipids) to activate the enzyme to maximum activity in 20 mM HEPES buffer (Sigma, St. Louis, Mo.), pH 7.5, 940 μM calcium chloride (Sigma, St. Louis, Mo.) for assaying the alpha, beta I, beta II and gamma enzyme only, 1 mM EGTA for all the enzymes, 10 mM magnesium chloride (Sigma, St. Louis, Mo.) and 30 μM (gamma-32P) ATP (DuPont). For all the enzymes either histone type HL (Worthington) or myelin basic protein is used as substrate. The assay is started by addition of protein kinase C enzyme incubated at 30° C. for 10 minutes and stopped by adding 0.5 mL of cold trichloroacetic acid (Amresco) followed by 100 μL of 1 mg/mL bovine serum albumin (Sigma, St. Louis, Mo.). The precipitate is collected by vacuum filtration on glass fiber filters employing a TOMTEC™ filtration system and quantified by counting in a beta scintillation counter.

[2] = target: protein kinase C eta (Homo sapiens, UniProt P24723); assay: PKC Enzyme assay, eta isozyme; type: biochemical
Procedure: as §1, §2, §3

[3] = target: T1, protein kinase C epsilon (Homo sapiens, UniProt Q02156); assay: PKC Enzyme assay, epsilon isozyme; type: biochemical
T1 sequence (Q02156 1-737): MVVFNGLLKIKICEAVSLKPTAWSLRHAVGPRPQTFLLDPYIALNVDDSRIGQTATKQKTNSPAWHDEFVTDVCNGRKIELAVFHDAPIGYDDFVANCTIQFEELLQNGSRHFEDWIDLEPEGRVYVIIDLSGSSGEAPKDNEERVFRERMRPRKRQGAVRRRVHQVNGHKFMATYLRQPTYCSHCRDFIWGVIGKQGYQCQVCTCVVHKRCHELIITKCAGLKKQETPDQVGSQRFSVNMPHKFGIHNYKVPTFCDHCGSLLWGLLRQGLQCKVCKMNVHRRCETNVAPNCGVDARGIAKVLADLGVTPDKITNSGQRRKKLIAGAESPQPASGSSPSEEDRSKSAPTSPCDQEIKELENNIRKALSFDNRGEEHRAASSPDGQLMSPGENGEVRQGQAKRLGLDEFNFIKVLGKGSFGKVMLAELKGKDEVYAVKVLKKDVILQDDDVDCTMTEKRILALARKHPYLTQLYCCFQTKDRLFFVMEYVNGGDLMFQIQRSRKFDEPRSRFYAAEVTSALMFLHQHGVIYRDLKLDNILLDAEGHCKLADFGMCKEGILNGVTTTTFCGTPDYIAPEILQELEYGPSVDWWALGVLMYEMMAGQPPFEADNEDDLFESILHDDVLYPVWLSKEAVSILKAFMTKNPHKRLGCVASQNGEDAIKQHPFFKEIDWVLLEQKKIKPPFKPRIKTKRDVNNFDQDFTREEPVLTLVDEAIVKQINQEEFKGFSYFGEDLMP
Procedure: as §1, §2, §3

[4] = target: protein kinase C beta-2 (Homo sapiens, UniProt P05771); assay: PKC Enzyme assay, beta II isozyme; type: biochemical
Procedure: as §1, §2, §3

[5] = target: protein kinase C alpha (Homo sapiens, UniProt P17252); assay: PKC Enzyme assay, alpha isozyme; type: biochemical
Procedure: as §1, §2, §3

[6] = target: T2, protein kinase C zeta (Homo sapiens, UniProt Q05513); assay: PKC Enzyme assay, zeta isozyme; type: biochemical
T2 sequence (Q05513 1-592): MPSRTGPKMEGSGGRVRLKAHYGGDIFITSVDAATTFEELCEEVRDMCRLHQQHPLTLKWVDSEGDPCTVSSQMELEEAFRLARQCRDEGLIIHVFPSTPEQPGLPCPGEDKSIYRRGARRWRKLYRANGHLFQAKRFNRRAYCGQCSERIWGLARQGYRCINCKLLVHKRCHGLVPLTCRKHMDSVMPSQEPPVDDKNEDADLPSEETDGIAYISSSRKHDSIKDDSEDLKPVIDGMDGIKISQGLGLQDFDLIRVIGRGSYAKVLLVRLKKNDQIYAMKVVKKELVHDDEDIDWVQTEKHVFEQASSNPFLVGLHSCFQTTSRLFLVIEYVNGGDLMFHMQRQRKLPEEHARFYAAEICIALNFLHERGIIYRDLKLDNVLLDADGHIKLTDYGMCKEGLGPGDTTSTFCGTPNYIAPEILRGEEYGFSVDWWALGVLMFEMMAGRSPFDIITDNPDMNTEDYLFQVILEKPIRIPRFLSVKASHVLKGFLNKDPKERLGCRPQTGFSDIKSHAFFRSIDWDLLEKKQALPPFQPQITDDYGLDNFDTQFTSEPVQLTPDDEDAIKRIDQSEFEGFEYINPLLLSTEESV
Procedure: as §1, §2, §3

[7] = target: protein kinase C delta (Homo sapiens, UniProt Q05655); assay: biochemical
Procedure: as §1, §2, §3

[8] = target: protein kinase C beta-1 (Homo sapiens, UniProt P05771); assay: PKC Enzyme assay, beta I isozyme; type: biochemical
Procedure: as §1, §2, §3

[9] = PKC gamma, 30 μM ATP, 30° C., 10 minutes, read-out: IC50 γ
[10] = PKC eta, 30 μM ATP, 30° C., 10 minutes, read-out: IC50 η
[11] = PKC epsilon, 30 μM ATP, 30° C., 10 minutes, read-out: IC50 ε
[12] = PKC beta-2, 30 μM ATP, 30° C., 10 minutes, read-out: IC50 β2
[13] = PKC alpha, 30 μM ATP, 30° C., 10 minutes, read-out: IC50 α
[14] = PKC zeta, 30 μM ATP, 30° C., 10 minutes, read-out: IC50 ζ
[15] = PKC delta, 30 μM ATP, 30° C., 10 minutes, read-out: IC50 δ
[16] = PKC beta-1, 30 μM ATP, 30° C., 10 minutes, read-out: IC50 β1

protein kinase C eta, sequence (P24723 whole entry): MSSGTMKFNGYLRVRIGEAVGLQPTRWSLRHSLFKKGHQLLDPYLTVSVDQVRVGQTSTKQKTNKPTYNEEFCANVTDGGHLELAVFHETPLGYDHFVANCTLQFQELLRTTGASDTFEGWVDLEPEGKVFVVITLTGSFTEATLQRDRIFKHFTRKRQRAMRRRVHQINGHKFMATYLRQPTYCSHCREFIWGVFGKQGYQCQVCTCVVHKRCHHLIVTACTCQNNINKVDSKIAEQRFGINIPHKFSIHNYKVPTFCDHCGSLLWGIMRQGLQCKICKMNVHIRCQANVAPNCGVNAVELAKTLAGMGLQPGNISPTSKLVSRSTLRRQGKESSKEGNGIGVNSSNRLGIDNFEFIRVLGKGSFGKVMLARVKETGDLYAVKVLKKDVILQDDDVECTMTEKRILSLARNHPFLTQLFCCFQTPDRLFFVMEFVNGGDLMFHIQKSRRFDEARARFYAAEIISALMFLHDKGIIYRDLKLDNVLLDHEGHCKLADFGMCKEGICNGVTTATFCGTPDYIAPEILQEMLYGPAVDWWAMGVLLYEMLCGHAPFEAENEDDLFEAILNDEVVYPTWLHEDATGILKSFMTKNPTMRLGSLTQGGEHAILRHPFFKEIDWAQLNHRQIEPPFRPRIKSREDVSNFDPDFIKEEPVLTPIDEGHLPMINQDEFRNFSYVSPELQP
protein kinase C beta-1, sequence (P05771 whole entry): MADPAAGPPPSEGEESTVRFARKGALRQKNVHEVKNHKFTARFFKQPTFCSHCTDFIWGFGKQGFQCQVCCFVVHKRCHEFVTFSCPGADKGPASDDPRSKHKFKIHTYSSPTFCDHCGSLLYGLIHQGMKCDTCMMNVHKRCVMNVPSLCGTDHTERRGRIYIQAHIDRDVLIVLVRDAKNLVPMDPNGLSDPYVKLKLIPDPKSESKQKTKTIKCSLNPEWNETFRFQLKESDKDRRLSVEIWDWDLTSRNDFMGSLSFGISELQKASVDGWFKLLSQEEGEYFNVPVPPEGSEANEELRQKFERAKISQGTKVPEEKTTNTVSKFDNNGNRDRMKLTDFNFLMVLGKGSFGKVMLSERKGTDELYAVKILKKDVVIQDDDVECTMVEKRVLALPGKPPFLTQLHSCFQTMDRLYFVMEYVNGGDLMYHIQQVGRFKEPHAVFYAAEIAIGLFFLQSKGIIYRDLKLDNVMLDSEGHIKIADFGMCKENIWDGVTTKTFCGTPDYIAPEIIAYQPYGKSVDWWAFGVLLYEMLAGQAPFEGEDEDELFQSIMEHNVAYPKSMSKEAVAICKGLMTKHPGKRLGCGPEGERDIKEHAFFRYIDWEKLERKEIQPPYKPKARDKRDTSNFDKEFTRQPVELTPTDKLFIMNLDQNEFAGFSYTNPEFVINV
protein kinase C delta, sequence (Q05655 whole entry): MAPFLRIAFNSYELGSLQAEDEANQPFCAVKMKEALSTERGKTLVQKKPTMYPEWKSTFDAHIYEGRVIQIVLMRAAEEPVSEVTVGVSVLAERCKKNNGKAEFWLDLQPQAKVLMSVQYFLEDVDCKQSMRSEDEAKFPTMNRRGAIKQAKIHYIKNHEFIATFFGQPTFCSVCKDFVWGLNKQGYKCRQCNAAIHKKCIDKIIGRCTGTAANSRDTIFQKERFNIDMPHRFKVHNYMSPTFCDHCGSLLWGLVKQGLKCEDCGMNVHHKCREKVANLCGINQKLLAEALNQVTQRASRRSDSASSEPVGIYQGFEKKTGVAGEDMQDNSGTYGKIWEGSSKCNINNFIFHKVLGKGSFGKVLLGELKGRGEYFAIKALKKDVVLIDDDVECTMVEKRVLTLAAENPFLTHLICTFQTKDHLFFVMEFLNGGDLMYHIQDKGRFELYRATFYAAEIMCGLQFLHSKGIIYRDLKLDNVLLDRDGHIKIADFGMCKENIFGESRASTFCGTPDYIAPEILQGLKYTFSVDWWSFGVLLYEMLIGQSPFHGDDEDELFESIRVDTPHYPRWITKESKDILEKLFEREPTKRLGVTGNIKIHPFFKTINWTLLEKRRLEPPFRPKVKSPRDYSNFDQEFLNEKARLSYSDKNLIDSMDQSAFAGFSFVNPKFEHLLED
protein kinase C beta-2, sequence (P05771 1-673 isoform P05771-2): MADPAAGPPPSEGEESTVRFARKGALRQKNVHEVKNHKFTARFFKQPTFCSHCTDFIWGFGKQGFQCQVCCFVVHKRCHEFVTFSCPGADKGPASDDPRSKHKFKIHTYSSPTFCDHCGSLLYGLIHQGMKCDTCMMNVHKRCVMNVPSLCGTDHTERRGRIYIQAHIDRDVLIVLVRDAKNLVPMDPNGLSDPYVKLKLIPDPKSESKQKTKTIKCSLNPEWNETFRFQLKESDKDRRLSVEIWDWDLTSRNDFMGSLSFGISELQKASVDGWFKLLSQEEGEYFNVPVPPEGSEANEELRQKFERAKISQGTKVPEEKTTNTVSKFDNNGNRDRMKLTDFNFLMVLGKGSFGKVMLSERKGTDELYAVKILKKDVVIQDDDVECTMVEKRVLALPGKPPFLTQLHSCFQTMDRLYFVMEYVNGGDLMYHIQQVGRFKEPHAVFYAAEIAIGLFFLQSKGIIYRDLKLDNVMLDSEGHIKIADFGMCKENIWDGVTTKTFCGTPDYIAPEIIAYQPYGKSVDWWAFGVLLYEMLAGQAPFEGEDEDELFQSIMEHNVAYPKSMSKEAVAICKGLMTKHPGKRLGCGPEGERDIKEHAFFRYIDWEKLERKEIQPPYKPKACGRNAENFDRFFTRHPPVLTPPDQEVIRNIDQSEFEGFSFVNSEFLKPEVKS

Row | IC50 [1, 9] | IC50 [2, 10] | IC50 [4, 12] | IC50 [5, 13] | IC50 [6, 14] | IC50 [7, 15] | IC50 [8, 16] | SMILES | IC50 [3, 11] | IC50 [1] | IC50 [2] | IC50 [3] | IC50 [4] | IC50 [5] | IC50 [7] | IC50 [8] | IC50 [6]
1 | 8800 nM | 5700 nM | 60 nM | 3500 nM | 33000 nM | 6800 nM | 70 nM | Cn1cc(C2=C(c3c4n(c5ccccc35)CCC(CO)(CO)C4)C(=O)NC2=O)c2ccccc21 [Example 2, 3-[8,8-bis(hydroxymethylene)-6,7,8,9-tetrahydropyrido[1,2-a]indol-10-yl]-4-(1-methyl-3-indolyl)-1H-pyrrole-2,5-dione] | 31800 nM | – | – | – | – | – | – | – | –
2 | 4400 nM | 1100 nM | 25 nM | 320 nM | 46000 nM | 410 nM | 36 nM | CC(=O)NC[C@H]1O[C@H](OCCn2cc(C3=C(c4cn(C)c5ccccc45)C(=O)NC3=O)c3ccccc32)C[C@@H]1O [Example 3] | 600 nM | – | – | – | – | – | – | – | –
3 | – | – | – | – | – | – | – | Cn1cc(C2=C(c3cn(C4CCN(C(=O)OC(C)(C)C)CC4)c4ccccc34)C(=O)NC2=O)c2ccccc21 [Example 6, 3-(1-[4-(1-t-butoxycarbonyl)-piperidinyl]-3-indolyl)-4-(1-methyl-3-indolyl)-1H-pyrrole-2,5-dione] | – | 5300 nM | 300 nM | 4400 nM | 82 nM | 6100 nM | 7300 nM | 220 nM | –
4 | 1300 nM | 130 nM | 26 nM | 340 nM | 9300 nM | 970 nM | 19 nM | CC(C)N1CCC(n2cc(C3=C(c4cn(C)c5ccccc45)C(=O)NC3=O)c3ccccc32)CC1 [Example 8, 3-[1-(1-i-Propyl-piperidin-4-yl)-1H-indol-3-yl]-4-(1-methyl-1H-indol-3-yl)-pyrrole-2,5-dione] | 390 nM | – | – | – | – | – | – | – | –
5 | 1500 nM | 400 nM | 6.1 nM | 270 nM | 9260 nM | 440 nM | 14 nM | Cn1cc(C2=C(c3c4n(c5ccccc35)CCC(CO)C4)C(=O)NC2=O)c2ccccc21 (stereo not drawn) [Example 9, 3-[8-(Hydroxymethyl)-6,7,8,9-tetrahydropyrido[1,2-a]indol-10-yl]-4-(1-methyl-3-indolyl)-1H-pyrrole-2,5 dione] | 3800 nM | – | – | – | – | – | – | – | –
6 | – | – | – | – | – | – | – | CN(C)CCCn1cc(C2=C(c3c[nH]c4ccccc34)C(=O)NC2=O)c2ccccc21 [Example 10] | – | 1040 nM | 90 nM | 930 nM | 50 nM | 660 nM | 920 nM | 50 nM | 23000 nM
7 | 300 nM | 40 nM | 5 nM | 400 nM | – | 300 nM | 20 nM | CCN1CCC(n2cc(C3=C(c4cn(C)c5ccccc45)C(=O)NC3=O)c3ccccc32)CC1 [Example 40, 3-[1-(1-Ethyl-piperidin-4-yl)-indol-3-yl]-4-(1-methyl-indol-3-yl)-pyrrole-2,5-dione] | 400 nM | – | – | – | – | – | – | – | –
8 | – | 4000 nM | 360 nM | 10000 nM | > 100000 nM | 9000 nM | 1600 nM | Cn1cc(C2=C(c3cn(CCO[C@@H]4O[C@H](CN=[N+]=[N-])[C@H](O)[C@H](O)[C@H]4O)c4ccccc34)C(=O)NC2=O)c2ccccc21 [Example 57] | > 100000 nM | – | – | – | – | – | – | – | –
9 | 30000 nM | 3400 nM | – | 8100 nM | 47000 nM | 8400 nM | 390 nM | Cn1cc(C2=C(c3cn(CCO[C@H]4O[C@H](CN)[C@H](O)[C@H](O)[C@H]4O)c4ccccc34)C(=O)NC2=O)c2ccccc21 [Example 65] | – | – | – | – | – | – | – | – | –
10 | 30000 nM | 3000 nM | – | 9000 nM | 37000 nM | 4400 nM | 240 nM | Cn1cc(C2=C(c3cn(CCOC4OC(CN)C(O)C(O)C4O)c4ccccc34)C(=O)NC2=O)c2ccccc21 (stereo not drawn) [Example 66] | – | – | – | – | – | – | – | – | –

Row | SMILES | IC50 [1, 9] | IC50 [2, 10] | IC50 [4, 12] | IC50 [5, 13] | IC50 [6, 14] | IC50 [7, 15] | IC50 [8, 16] | IC50 [3, 11] | IC50 [1] | IC50 [2] | IC50 [3] | IC50 [4] | IC50 [5] | IC50 [7] | IC50 [8] | IC50 [6]
11 | CC(=O)OCC1(COC(C)=O)CCn2c(c(C3=C(c4cn(C)c5ccccc45)C(=O)NC3=O)c3ccccc32)C1 [Example 1, 3-[8,8-bis(acetoxymethylene)-6,7,8,9-tetrahydropyrido[1,2-a]indol-10-yl]-4-(1-methyl-3-indolyl)-1H-pyrrole-2,5-dione] | 38000 nM | 121000 nM | 300 nM | 9800 nM | 50000 nM | 47000 nM | 360 nM | 150000 nM | – | – | – | – | – | – | – | –
12 | Cn1cc(C2=C(c3cn(C4CCN(Cc5ccccc5)CC4)c4ccccc34)C(=O)NC2=O)c2ccccc21 [Example 4, 3-(1-[4-(1-benzyl)-piperidinyl]-3-indolyl)-4-(1-methyl-3-indolyl)-1H-pyrrole-2,5-dione] | 7000 nM | 500 nM | 30 nM | 6000 nM | – | 6000 nM | 50 nM | 4000 nM | – | – | – | – | – | – | – | –
13 | Cn1cc(C2=C(c3cn(C4CCN(C(=NC(=O)OC(C)(C)C)NC(=O)OC(C)(C)C)CC4)c4ccccc34)C(=O)NC2=O)c2ccccc21 [Example 5, [t-Butoxycarbonylimino-(4-{3-[4-(1-methyl-1H-indol-3-yl)-2,5-dioxo-2,5-dihydro-1H-pyrrole-3-yl]-indol-1-yl}-piperidin-1-yl)-methyl]-carbamic acid t-butyl ester] | 500 nM | 150 nM | 29 nM | 370 nM | 42000 nM | 470 nM | 44 nM | 2600 nM | – | – | – | – | – | – | – | –
14 | CC(C)(C)OC(=O)N1CCC(n2cc(C3=C(c4c[nH]c5ccccc45)C(=O)NC3=O)c3ccccc32)CC1 [Example 7] | 2800 nM | 6200 nM | 100 nM | 3300 nM | 31000 nM | 4100 nM | 230 nM | 6300 nM | – | – | – | – | – | – | – | –
15 | CN(C)CCCn1cc(C2=C(c3cn(C)c4ccccc34)C(=O)NC2=O)c2ccccc21 [Example 13] | 1700 nM | 470 nM | – | – | 25000 nM | 930 nM | – | 3600 nM | – | – | – | 60 nM | – | – | 140 nM | –
16 | Cn1cc(C2=C(c3cn(C4CCN(Cc5ccccn5)CC4)c4ccccc34)C(=O)NC2=O)c2ccccc21 [Example 49] | 2000 nM | – | – | – | 8000 nM | – | – | 300 nM | – | – | – | – | – | – | – | –
17 | Cn1cc(C2=C(c3cn(C4CCNCC4)c4ccccc34)C(=O)NC2=O)c2ccccc21 [Example 52] | – | 200 nM | – | – | 4000 nM | – | – | 1000 nM | – | – | – | – | – | – | – | –
